Tested on: Fall Army Worm, Spodoptera frupperda
Assay: Larvae feeding on transgenic Arabidopsis plants, mortality
Type: in vivo
Conditions: relative to control plants
Procedure: The mortality of moth larvae species was assayed examining the feeding of the three genotypes of transgenic plants relative to each other and relative to wild-type plant controls. An initial result indicates extremely high expression levels of the B.t. and B.t.B expressed from the ACTIN 2 A2pt cassette can be achieved. […] Cry1Ac (plant line Cry1#31, Table 2). The mortality of Fall Army Worm, Spodoptera frupperda, which is 100-fold less sensitive to Cry1Ac, was assayed feeding on these plants.

## B.t. Cry1Ac: Bacillus thuringiensis toxin Cry1Ac expressed in transgenic Arabidopsis from A2pt::Cry1Ac (SEQ ID NO: 1)
  killing of the Fall Army Worm feeding on transgenic plants: weak killing activity
